Laboratory results: PubChem BioAssay AID1963430 (Molecular Pharmacology Branch, DTP, NCI, 2024)

System: 521955-158-R2-J5-PDC complex spheroid growth, % test/control
Assay: Anticancer human tumor 521955-158-R2-J5-PDC patient-derived pancreatic carcinoma cell line growth inhibition [Asc]
Conditions: for IC50: curve of first compound; for viability, T/C: stronger effect = lower value
Summary of the method: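 Stromal components (HUVEC and hMSC) are co-assembled with the cancer cells into multicellular spheroids. Drugs are then added singly or paired, at concentrations falling by half-log increments from a clinically achievable maximum, capped at 10 microM without known Cmax.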

[1] = second compound 0.1 µM, first compound 0.00316 µM
[2] = second compound 0.1 µM, first compound 0.01 µM
[3] = second compound 0.1 µM, first compound 0.0316 µM
[4] = second compound 0.1 µM, first compound 0.1 µM
[5] = second compound 0.1 µM, first compound 0.316 µM
[6] = second compound 0.1 µM, first compound 1 µM
[7] = second compound 0.316 µM, first compound 0.00316 µM
[8] = second compound 0.316 µM, first compound 0.01 µM
[9] = second compound 0.316 µM, first compound 0.0316 µM
[10] = second compound 0.316 µM, first compound 0.1 µM
[11] = second compound 0.316 µM, first compound 0.316 µM
[12] = second compound 0.316 µM, first compound 1 µM
[13] = second compound 1 µM, first compound 0.00316 µM
[14] = second compound 1 µM, first compound 0.01 µM
[15] = second compound 1 µM, first compound 0.0316 µM
[16] = second compound 1 µM, first compound 0.1 µM
[17] = second compound 1 µM, first compound 0.316 µM
[18] = second compound 1 µM, first compound 1 µM
[19] = second compound 3.16 µM, first compound 0.00316 µM
[20] = second compound 3.16 µM, first compound 0.01 µM
[21] = second compound 3.16 µM, first compound 0.0316 µM
[22] = second compound 3.16 µM, first compound 0.1 µM
[23] = second compound 3.16 µM, first compound 0.316 µM
[24] = second compound 3.16 µM, first compound 1 µM
[25] = second compound 10 µM, first compound 0.00316 µM
[26] = second compound 10 µM, first compound 0.01 µM
[27] = second compound 10 µM, first compound 0.0316 µM
[28] = second compound 10 µM, first compound 0.1 µM
[29] = second compound 10 µM, first compound 0.316 µM
[30] = second compound 10 µM, first compound 1 µM
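Note: spheroids exposed to agents for 7 days before readout.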
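Throughout, for viability, T/C: 100% = DMSO vehicle control viability.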

Row | SMILES | IC50 (second compound 0.1 µM) [nM] | IC50 (second compound 0.316 µM) [nM] | IC50 (second compound 1 µM) [nM] | IC50 (second compound 3.16 µM) [nM] | IC50 (second compound 10 µM) [nM] | viability, T/C [1] [%] | viability, T/C [2] [%] | viability, T/C [3] [%] | viability, T/C [4] [%] | viability, T/C [5] [%] | viability, T/C [6] [%] | viability, T/C [7] [%] | viability, T/C [8] [%] | viability, T/C [9] [%] | viability, T/C [10] [%] | viability, T/C [11] [%] | viability, T/C [12] [%] | viability, T/C [13] [%] | viability, T/C [14] [%] | viability, T/C [15] [%] | also measured
1 | CNC(C)C(=O)NC1CN(S(=O)(=O)c2cccc(S(=O)(=O)N3CCC4CCC(C(=O)NC(c5ccccc5)c5ccccc5)N4C(=O)C(NC(=O)C(C)NC)C3)c2)CCC2CCC(C(=O)NC(c3ccccc3)c3ccccc3)N2C1=O (stereo not given) + Cc1c(S(C)(=O)=O)c(-c2cc(F)cc(N3CCN(c4ccc(NS(=O)(=O)c5ccc(NC(CCN6CCC(C(=O)OCCCP(=O)(O)O)CC6)CSc6ccccc6)c(S(=O)(=O)C(F)(F)F)c5)cc4)CC3)c2)c(-c2ccc(Cl)cc2)n1C(C)C | > 1000 | > 1000 | > 1000 | > 1000 | > 1000 | 75.6 | 64 | 57.1 | 76.4 | 64 | 67.9 | 92.7 | 86.7 | 89.3 | 74.6 | 91.1 | 87.6 | 97.2 | 88.4 | 71.8 | viability, T/C [16]: 77.8%; viability, T/C [17]: 59.8%; viability, T/C [18]: 75.7%; viability, T/C [19]: 97.7%; viability, T/C [20]: 75.9%; viability, T/C [21]: 47.5%; viability, T/C [22]: 80.6%; viability, T/C [23]: 65.8%; viability, T/C [24]: 60.4%; viability, T/C [25]: 192%; viability, T/C [26]: 171%; viability, T/C [27]: 180%; viability, T/C [28]: 149%; viability, T/C [29]: 197%; viability, T/C [30]: 121%
2 | COc1c(OCCCN2CCOCC2)ccc2c3n(c(=NC(=O)c4cnc(N)nc4)nc12)CCN3 + Cc1c(S(C)(=O)=O)c(-c2cc(F)cc(N3CCN(c4ccc(NS(=O)(=O)c5ccc(NC(CCN6CCC(C(=O)OCCCP(=O)(O)O)CC6)CSc6ccccc6)c(S(=O)(=O)C(F)(F)F)c5)cc4)CC3)c2)c(-c2ccc(Cl)cc2)n1C(C)C | 8.11 | 9.46 | < 3.16 | < 3.16 | 173 | 58.2 | 52.3 | 30.2 | 31.4 | 18 | 8.91 | 65.2 | 53.1 | 27.2 | 31.2 | 13.1 | 10.8 | 39.3 | 39.6 | 38.9 | viability, T/C [16]: 33.2%; viability, T/C [17]: 11%; viability, T/C [18]: 3.88%; viability, T/C [19]: 45.4%; viability, T/C [20]: 50.5%; viability, T/C [21]: 39.9%; viability, T/C [22]: 32%; viability, T/C [23]: 14%; viability, T/C [24]: 2.79%; viability, T/C [25]: 189%; viability, T/C [26]: 133%; viability, T/C [27]: 166%; viability, T/C [28]: 87.5%; viability, T/C [29]: 11.1%; viability, T/C [30]: 7%
